In patent US20250188069A1, “COMPOUNDS AND METHODS FOR DEGRADING CASEIN KINASE 1 ALPHA” (PIN THERAPEUTICS, INC., priority 2022, published 2025):
Counter-ions that a name gives are not always drawn.

Test system: MV-4-11 cells
Assay: AML cell viability assay (RealTime-Glo)
Type: cell-based
Conditions: Homo sapiens, MV4-11, 44 h, read-out: Cell viability classification

SMILES	IC50 [nM]
O=C1CCC(N2Cc3c(cccc3N(CCC3CC3)[C@H]3CC[C@@H](Nc4ccccn4)CC3)C2=O)C(=O)N1 (stereo partly shown) [Compound 575, 3-{4-[(2-cyclopropylethyl)[(1s,4s)-4-(pyridin-2-ylamino)cyclohexyl]amino]-1-oxo-3H-isoindol-2-yl}piperidine-2,6-dione]	100 to 1000
O=C1CCC(N2Cc3c(cccc3N(CCC3CC3)[C@H]3CC[C@H](Nc4ccccn4)CC3)C2=O)C(=O)N1 (stereo partly shown) [Compound 576, 3-{4-[(2-cyclopropylethyl)[(1r,4r)-4-(pyridin-2-ylamino)cyclohexyl]amino]-1-oxo-3H-isoindol-2-yl}piperidine-2,6-dione]	100 to 1000

Same assay, conditions: Homo sapiens, MV4-11; IC50 class; MV-4-11 cells, RealTime-Glo after 44 hrs of treatment (TABLE 1); read-out: Cell viability classification

SMILES	IC50 [nM]
N[C@H]1CC[C@H](N(CCCC2CCCO2)c2cccc3c2CN(C2CCC(=O)NC2=O)C3=O)CC1 (stereo partly shown) [Compound 346, 3-(4-(((1r,4r)-4-aminocyclohexyl)(3-(tetrahydrofuran-2-yl)propyl)amino)-1-oxoisoindolin-2-yl)piperidine-2,6-dione, HCl]	100 to 1000
N[C@H]1CC[C@@H](N(CCCC2CCOCC2)c2cccc3c2CN(C2CCC(=O)NC2=O)C3=O)C1 (stereo partly drawn) [Compound 353, 3-(4-(((1R,3S)-3-aminocyclopentyl)(3-(tetrahydro-2H-pyran-4-yl)propyl)amino)-1-oxoisoindolin-2-yl)piperidine-2,6-dione]	100 to 1000
C[C@H]1CC[C@@H](N(c2cccc3c2CN(C2CCC(=O)NC2=O)C3=O)[C@@H]2CC[C@H](N)C2)CC1 (stereo partly drawn) [Compound 354, 3-(4-(((1R,3S)-3-aminocyclopentyl)((1s,4S)-4-methylcyclohexyl)amino)-1-oxoisoindolin-2-yl)piperidine-2,6-dione]	> 1000
O=C1CCC(N2Cc3c(cccc3N(CCC3CC3)[C@@H]3CC[C@H](NCC4CC4)C3)C2=O)C(=O)N1 (stereo partly drawn) [Compound 355, 3-(4-((2-cyclopropylethyl)((1R,3S)-3-((cyclopropylmethyl)amino)cyclopenty 1)amino)-1-oxoisoindolin-2-yl)piperidine-2,6-dione]	< 100
O=C1CCC(N2Cc3c(cccc3N(CCCC3CCOCC3)[C@@H]3CC[C@H](NCC4CC4)C3)C2=O)C(=O)N1 (stereo partly drawn) [Compound 356, 3-(4-(((1R,3S)-3-((cyclopropylmethyl)amino)cyclopenty 1)(3-(tetrahydro-2H-pyran-4-yl)propyl)amino)-1-oxoisoindolin-2-yl)piperidine-2,6-dione]	< 100
NC(=O)[C@H]1CC[C@@H](N(CCC2CC2)c2cccc3c2CN(C2CCC(=O)NC2=O)C3=O)C1 (stereo partly drawn) [Compound 359, (1S,3R)-3-((2-cyclopropylethyl)(2-(2,6-dioxopiperidin-3-yl)-1-oxoisoindolin-4-yl)amino)cyclopentane-1-carboxamide]	< 100

Second part, the compound after the results:

IC50 [nM]	SMILES
100 to 1000	N[C@H]1CC[C@H](N(CCCC2COC2)c2cccc3c2CN(C2CCC(=O)NC2=O)C3=O)CC1 (stereo partly shown) [Compound 347, 3-(4-(((1r,4r)-4-aminocyclohexyl)(3-(oxetan-3-yl)propyl)amino)-1-oxoisoindolin-2-yl)piperidine-2,6-dione]
> 1000	N[C@H]1CC[C@H](N(Cc2ccccc2)c2cccc3c2CN(C2CCC(=O)NC2=O)C3=O)CC1 (stereo partly shown) [Compound 349, 3-(4-(((1r,4r)-4-aminocyclohexyl)(benzyl)amino)-1-oxoisoindolin-2-yl)piperidine-2,6-dione]
< 100	N[C@H]1CC[C@@H](N(CCC2CC2)c2cccc3c2CN(C2CCC(=O)NC2=O)C3=O)C1 (stereo partly drawn) [Compound 352, 3-(4-(((1R,3S)-3-aminocyclopentyl)(2-cyclopropylethyl)amino)-1-oxoisoindolin-2-yl)piperidine-2,6-dione]
< 100	CNC(=O)[C@H]1CC[C@@H](N(CCC2CC2)c2cccc3c2CN(C2CCC(=O)NC2=O)C3=O)C1 (stereo partly drawn) [Compound 360, (1S,3R)-3-((2-cyclopropylethyl)(2-(2,6-dioxopiperidin-3-yl)-1-oxoisoindolin-4-yl)amino)-N-methylcyclopentane-1-carboxamide]
100 to 1000	NC(=O)[C@H]1CC[C@@H](N(CCCC2CCOCC2)c2cccc3c2CN(C2CCC(=O)NC2=O)C3=O)C1 (stereo partly drawn) [Compound 361, (1S,3R)-3-((2-(2,6-dioxopiperidin-3-yl)-1-oxoisoindolin-4-yl)(3-(tetrahydro-2H-pyran-4-yl)propyl)amino)cyclopentane-1-carboxamide]
100 to 1000	CNC(=O)[C@H]1CC[C@@H](N(CCCC2CCOCC2)c2cccc3c2CN(C2CCC(=O)NC2=O)C3=O)C1 (stereo partly drawn) [Compound 362, (1S,3R)-3-((2-(2,6-dioxopiperidin-3-yl)-1-oxoisoindolin-4-yl)(3-(tetrahydro-2H-pyran-4-yl)propyl)amino)-N-methylcyclopentane-1-carboxamide]

Same assay, conditions: Homo sapiens, MV4-11; IC50 class; MV-4-11 cells, RealTime-Glo after 44 hrs of treatment (TABLE 4); read-out: Cell viability classification

SMILES	IC50 [nM]
O=C1CCC(N2Cc3c(cccc3N(CCC3(C(F)(F)F)CC3)[C@H]3CC[C@H](NC4CC(F)(F)C4)CC3)C2=O)C(=O)N1 (stereo partly shown) [Compound 554, 3-(4-(((1r,4r)-4-((3,3-difluorocyclobutyl)amino)cyclohexyl)(2-(1-(trifluoromethyl)cyclopropyl)ethyl)amino)-1-oxoisoindolin-2-yl)piperidine-2,6-dione formate]	100 to 1000
O=C1CCC(N2Cc3c(cccc3N(CCC3(C(F)(F)F)CC3)[C@H]3CC[C@@H](NC4CC(F)(F)C4)CC3)C2=O)C(=O)N1 (stereo partly shown) [Compound 554A, 3-(4-(((1s,4s)-4-((3,3-difluorocyclobutyl)amino)cyclohexyl)(2-(1-(trifluoromethyl)cyclopropyl)ethyl)amino)-1-oxoisoindolin-2-yl)piperidine-2,6-dione]	100 to 1000
N[C@H]1C[C@H](CN(CC2CC3(CCC3)C2)c2cccc3c2CN(C2CCC(=O)NC2=O)C3=O)C1 (stereo partly shown) [Compound 558-2, 3-[1-oxo-4-({[(1r,3r)-3-aminocyclobutyl]methyl}({spiro[3.3]heptan-2-ylmethyl})amino)-3H-isoindol-2-yl]piperidine-2,6-dione]	< 100
CCN(CC)C(=O)CN[C@H]1CC[C@H](N(CCC2CC2)c2cccc3c2CN(C2CCC(=O)NC2=O)C3=O)CC1 (stereo partly shown) [Compound 562, N,N-diethyl-2-{[(1r,4r)-4-[(2-cyclopropylethyl)[2-(2,6-dioxopiperidin-3-yl)-1-oxo-3H-isoindol-4-yl]amino]cyclohexyl]amino}acetamide]	100 to 1000
O=C1CCC(N2Cc3c(cccc3N(CCC3CC3)[C@H]3CC[C@@H](c4nnc[nH]4)CC3)C2=O)C(=O)N1 (stereo partly shown) [Compound 573, 3-{4-[(2-cyclopropylethyl)[(1s,4s)-4-(4H-1,2,4-triazol-3-yl)cyclohexyl]amino]-1-oxo-3H-isoindol-2-yl}piperidine-2,6-dione; formate]	< 100
O=C1CCC(N2Cc3c(cccc3N(CCC3CC3)[C@H]3CC[C@H](c4nnc[nH]4)CC3)C2=O)C(=O)N1 (stereo partly shown) [Compound 574, 3-{4-[(2-cyclopropylethyl)[(1r,4r)-4-(4H-1,2,4-triazol-3-yl)cyclohexyl]amino]-1-oxo-3H-isoindol-2-yl}piperidine-2,6-dione; formate]	100 to 1000
O=C1CCC(N2Cc3c(cccc3N(CCC3CC3)[C@H]3CC[C@H](NCC(F)(F)F)CC3)C2=O)C(=O)N1 (stereo partly shown) [Compound 580, 3-{4-[(2-cyclopropylethyl)[(1r,4r)-4-[(2,2,2-trifluoroethyl)amino]cyclohexyl]amino]-1-oxo-3H-isoindol-2-yl}piperidine-2,6-dione]	> 1000
CC(N[C@H]1CC[C@H](N(CCC2CC2)c2cccc3c2CN(C2CCC(=O)NC2=O)C3=O)CC1)C(F)F (stereo partly shown) [Compound 583, 3-{4-[(2-cyclopropylethyl)[(1r,4r)-4-[(1,1-difluoropropan-2-yl)amino]cyclohexyl]amino]-1-oxo-3H-isoindol-2-yl}piperidine-2,6-dione]	100 to 1000
N#CC1(CN[C@H]2CC[C@H](N(CCC3CC3)c3cccc4c3CN(C3CCC(=O)NC3=O)C4=O)CC2)CC1 (stereo partly shown) [Compound 611, 1-({[(1r,4r)-4-[(2-cyclopropylethyl)[2-(2,6-dioxopiperidin-3-yl)-1-oxo-3H-isoindol-4-yl]amino]cyclohexyl]amino}methyl)cyclopropane-1-carbonitrile]	< 100
O=C1CCC(N2Cc3c(cccc3N(CCC3CC3)[C@H]3CC[C@@H](NCC4(F)CC4)CC3)C2=O)C(=O)N1 (stereo partly shown) [Compound 612A, 3-{4-[(2-cyclopropylethyl)[(1s,4s)-4-{[(1-fluorocyclopropyl)methyl]amino}cyclohexyl]amino]-1-oxo-3H-isoindol-2-yl}piperidine-2,6-dione]	100 to 1000

More lines, now with the values ahead:

IC50 [nM]	SMILES
100 to 1000	N[C@H]1CO[C@H]2[C@@H]1OC[C@@H]2N(CCC1CC1)c1cccc2c1CN(C1CCC(=O)NC1=O)C2=O (stereo partly drawn) [Compound 550, 3-(4-{[(3S,3aR,6S,6aR)-6-amino-hexahydrofuro[3,2-b]furan-3-yl](2-cyclopropylethyl)amino}-1-oxo-3H-isoindol-2-yl)piperidine-2,6-dione]
100 to 1000	O=C1CCC(N2Cc3c(cccc3N(CC3CC4(CCC4)C3)[C@H]3CC[C@H](NC4CC(F)(F)C4)CC3)C2=O)C(=O)N1 (stereo partly shown) [Compound 557, 3-(1-oxo-4-{[(1r,4r)-4-[(3,3-difluorocyclobutyl)amino]cyclohexyl]({spiro[3.3]heptan-2-ylmethyl})amino}-3H-isoindol-2-yl)piperidine-2,6-dione]
< 100	O=C1CCC(N2Cc3c(cccc3N(CCC3CC3)[C@H]3CC[C@H](NCC(=O)N4CCC(F)(F)CC4)CC3)C2=O)C(=O)N1 (stereo partly shown) [Compound 561, 3-{4-[(2-cyclopropylethyl)[(1r,4r)-4-{[2-(4,4-difluoropiperidin-1-yl)-2-oxoethyl]amino}cyclohexyl]amino]-1-oxo-3H-isoindol-2-yl}piperidine-2,6-dione]
< 100	O=C1CCC(N2Cc3c(cccc3N(CCC3CC3)[C@H]3CC[C@H](NCC4(C(F)(F)F)CC4)CC3)C2=O)C(=O)N1 (stereo partly shown) [Compound 582, 3-{4-[(2-cyclopropylethyl)[(1r,4r)-4-({[1-(trifluoromethyl)cyclopropyl]methyl}amino)cyclohexyl]amino]-1-oxo-3H-isoindol-2-yl}piperidine-2,6-dione]
